Patent publication US20220152117A1, “METHODS OF PROMOTING CELLULAR MATURATION WITH AMPK ACTIVATORS” (UNIVERSITY OF WASHINGTON, priority 2019, published 2022)

What was measured:
[1] = system: neurons derived from an FAD patient cell line harboring a duplication of the APP gene; test: Secreted amyloid beta peptides in neuronal culture media by ELISA; format: cell-based, human; settings: three-week neuronal differentiation, at each week
Protocol: Undifferentiated human IMR90-induced pluripotent stem cells, originally derived from lung fibroblasts^22 (James A. Thomson, University of Wisconsin-Madison), were expanded using mouse embryonic fibroblast-conditioned medium supplemented with 5 ng/ml basic fibroblast growth factor. Cardiomyocytes were obtained using a previously described protocol^2 that involves the serial application of activin A and bone morphogenetic protein-4 (BMP4) under serum-free, monolayer culture conditions. The cultures were also supplemented with the Wnt agonist CHIR99021 in the early stages of differentiation followed by the Wnt antagonist Xav939. In this study, cardiomyocytes derived from human undifferentiated IMR90-induced stem cells were used, and for brevity, these are referred to human induced pluripotent stem cell-derived cardiomyocytes (hiPSC-CM). After 20 days of in vitro differentiation, the cells were dispersed using 0.05% trypsin-EDTA and re-plated. Cultures were fed every other day thereafter with serum-free RPMI-B27 plus insulin. Only cell preparations containing >80% cardiac troponin T-positive cardiomyocytes (by flow cytometry) were used for the current investigation. […]
Secreted Amyloid beta (Ab) peptides were measured from the neuronal culture media at one, two and three-week time points after AICAR treatment by ELISA assay (Meso Scale Discovery®).

hiPSC-derived neurons = test: Quantitative RT-PCR gene expression in neurons; format: cell-based, human
L6 myotube = settings: literature study (ref 44); cited from earlier work
control cardiomyocytes = test: TUNEL cell viability assay, control cardiomyocytes from normal iPSCs; format: cell-based, human; settings: two weeks treatment, TUNEL with α-actinin co-stain
Protocol: The normal and mutant Plakophilin 2 (PKP2) cells were generated as described previously^37. Induced pluripotent cells were cultured with E8 medium in Matrigel® coated plates. Cardiomyocytes were obtained using a protocol based on Lian et al^38 that involves Wnt agonist CHIR 99021 in the early stages of differentiation followed by the Wnt antagonist IWP2 under monolayer condition. Before Day 7, cells were cultured in RPMI plus B27 without insulin while on Day 7 and afterwards, EB media (KO-DMEM with 2% FBS, 1 mM NEAAs, 1× GlutaMAX, 1 mM mercaptoethanol, and penicillin/streptomycin) was used. At 30 days of differentiation, beating EBs were treated with three factors (3F) (50 μg/ml insulin, 0.5 μM dexamethasone, and 0.25 mM IBMX) or five factors (5F) (3F plus PPAR-γ agonists 5 μM rosiglitazone and 200 μM indomethacin) media as described earlier or treated with 1 mM AICAR or AICAR plus rosiglitazone and indomethacin for two weeks. TUNEL staining with In Situ Cell Death Detection Kit TMR Red™ (Roche®) was used to assess cell viability after conducting different treatment. TUNEL staining was co-stained with anti-α-actinin antibody so that cardiomyocyte-specific apoptosis could be assessed.

hiPSC-CMs = test: mtDNA to nDNA ratio by q-PCR in cardiomyocytes; format: cell-based, human; settings: relative to control hiPSC-CMs
Source text: Mitochondrial DNA (mtDNA) to nuclear DNA (nDNA) ratio was estimated by q-PCR. For this purpose, a mtDNA fragment within the NADH dehydrogenase 1 (ND 1) gene and a region of the nuclear DNA-encoded lipoprotein lipase gene (LPL) were amplified. The primer sequences for ND 1 and LPL were adapted from^30. Total DNA was extracted using Qiagen DNeasy Kit™.

[2] = normalized to HPRT then to control cells

## NC(=O)c1ncn([C@@H]2O[C@H](CO)[C@@H](O)[C@H]2O)c1N [AICAR, 5-amino-4-imidazolecarboxamide riboside-1-β-D-ribofuranoside]
[1]
  levels of secreted Ab1-40 peptides: significantly reduced
  levels of secreted Ab1-42 peptides: significantly reduced
hiPSC-derived neurons; compared to control neurons
  NeuN mRNA in neurons: significant increase
hiPSC-derived neurons; [2]
  PPARα expression in neurons: increased
  TFAM expression in neurons: increased
hiPSC-derived neurons; two weeks of treatment with AICAR every third day
  PDK4 expression in neurons: increase
L6 myotube
  ERK phosphorylation in L6 myotube: leads to ERK phosphorylation
Control cardiomyocytes
  apoptosis in control cardiomyocytes: None of the treatment groups significantly leads to apoptosis
hiPSC-CMs
  increase in the ratio of mtDNA to nDNA: 55%
